Assay results published in paper PMC6437697 (Journal of Medicinal Chemistry, 2019).

What was measured:
Test in all cases: KINOMEscan
Format in all cases: binding
Conditions in all cases: read-out: % control activity remaining
MYLK2 = target: T1, MYLK2 (Homo sapiens, UniProt Q9H1R3)
T1 construct: purchased Eurofins DiscoverX KINOMEscan

CLK4 = target: T2, CLK4 (Homo sapiens, UniProt Q9HAZ1)
T2 construct: purchased Eurofins DiscoverX KINOMEscan

CDK9 = target: T3, CDK9 (Homo sapiens, UniProt P50750)
T3 construct: purchased Eurofins DiscoverX KINOMEscan
T3 sequence (P50750 whole entry): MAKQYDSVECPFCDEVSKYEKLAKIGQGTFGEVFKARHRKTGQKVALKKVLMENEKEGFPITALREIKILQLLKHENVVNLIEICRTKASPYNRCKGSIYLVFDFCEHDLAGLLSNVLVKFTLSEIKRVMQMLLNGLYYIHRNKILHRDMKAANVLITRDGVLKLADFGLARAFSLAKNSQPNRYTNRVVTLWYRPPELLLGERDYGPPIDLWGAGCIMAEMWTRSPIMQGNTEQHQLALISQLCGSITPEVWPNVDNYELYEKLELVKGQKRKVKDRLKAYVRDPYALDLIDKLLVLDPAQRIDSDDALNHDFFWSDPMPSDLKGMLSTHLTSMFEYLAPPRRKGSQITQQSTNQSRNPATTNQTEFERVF

EPHB6 = target: T4, EPHB6 (Homo sapiens, UniProt O15197)
T4 construct: purchased Eurofins DiscoverX KINOMEscan
T4 sequence (O15197 32-1021): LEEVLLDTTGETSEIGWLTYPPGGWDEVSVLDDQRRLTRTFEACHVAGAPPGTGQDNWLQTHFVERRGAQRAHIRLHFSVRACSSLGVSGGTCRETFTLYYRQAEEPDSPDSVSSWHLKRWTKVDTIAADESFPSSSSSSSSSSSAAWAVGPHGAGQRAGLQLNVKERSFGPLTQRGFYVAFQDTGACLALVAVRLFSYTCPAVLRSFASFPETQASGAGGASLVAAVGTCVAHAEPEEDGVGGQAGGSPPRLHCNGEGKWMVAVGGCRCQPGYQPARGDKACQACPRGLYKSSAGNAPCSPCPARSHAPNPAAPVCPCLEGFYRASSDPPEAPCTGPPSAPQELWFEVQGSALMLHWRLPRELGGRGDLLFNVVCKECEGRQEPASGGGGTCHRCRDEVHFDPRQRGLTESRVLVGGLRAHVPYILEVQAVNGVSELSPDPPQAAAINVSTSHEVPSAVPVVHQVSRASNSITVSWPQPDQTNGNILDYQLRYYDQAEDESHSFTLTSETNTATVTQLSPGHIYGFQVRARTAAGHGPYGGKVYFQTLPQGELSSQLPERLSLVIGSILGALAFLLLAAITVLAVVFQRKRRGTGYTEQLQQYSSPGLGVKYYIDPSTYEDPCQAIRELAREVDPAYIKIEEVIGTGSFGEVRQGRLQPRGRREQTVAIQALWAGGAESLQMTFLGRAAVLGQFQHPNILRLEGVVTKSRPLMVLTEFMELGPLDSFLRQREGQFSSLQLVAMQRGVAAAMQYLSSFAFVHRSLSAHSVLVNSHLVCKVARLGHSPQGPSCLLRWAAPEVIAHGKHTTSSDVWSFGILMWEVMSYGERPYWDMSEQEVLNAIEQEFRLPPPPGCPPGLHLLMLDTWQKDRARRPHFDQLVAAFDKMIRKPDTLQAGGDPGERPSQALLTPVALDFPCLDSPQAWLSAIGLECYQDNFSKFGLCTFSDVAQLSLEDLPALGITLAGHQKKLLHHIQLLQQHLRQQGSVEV

FLT3(D835Y) = target: T5, FLT3(D835Y) (Homo sapiens, UniProt P36888, D835Y)
T5 construct: purchased Eurofins DiscoverX KINOMEscan
T5 sequence (P36888 27-993 D835Y): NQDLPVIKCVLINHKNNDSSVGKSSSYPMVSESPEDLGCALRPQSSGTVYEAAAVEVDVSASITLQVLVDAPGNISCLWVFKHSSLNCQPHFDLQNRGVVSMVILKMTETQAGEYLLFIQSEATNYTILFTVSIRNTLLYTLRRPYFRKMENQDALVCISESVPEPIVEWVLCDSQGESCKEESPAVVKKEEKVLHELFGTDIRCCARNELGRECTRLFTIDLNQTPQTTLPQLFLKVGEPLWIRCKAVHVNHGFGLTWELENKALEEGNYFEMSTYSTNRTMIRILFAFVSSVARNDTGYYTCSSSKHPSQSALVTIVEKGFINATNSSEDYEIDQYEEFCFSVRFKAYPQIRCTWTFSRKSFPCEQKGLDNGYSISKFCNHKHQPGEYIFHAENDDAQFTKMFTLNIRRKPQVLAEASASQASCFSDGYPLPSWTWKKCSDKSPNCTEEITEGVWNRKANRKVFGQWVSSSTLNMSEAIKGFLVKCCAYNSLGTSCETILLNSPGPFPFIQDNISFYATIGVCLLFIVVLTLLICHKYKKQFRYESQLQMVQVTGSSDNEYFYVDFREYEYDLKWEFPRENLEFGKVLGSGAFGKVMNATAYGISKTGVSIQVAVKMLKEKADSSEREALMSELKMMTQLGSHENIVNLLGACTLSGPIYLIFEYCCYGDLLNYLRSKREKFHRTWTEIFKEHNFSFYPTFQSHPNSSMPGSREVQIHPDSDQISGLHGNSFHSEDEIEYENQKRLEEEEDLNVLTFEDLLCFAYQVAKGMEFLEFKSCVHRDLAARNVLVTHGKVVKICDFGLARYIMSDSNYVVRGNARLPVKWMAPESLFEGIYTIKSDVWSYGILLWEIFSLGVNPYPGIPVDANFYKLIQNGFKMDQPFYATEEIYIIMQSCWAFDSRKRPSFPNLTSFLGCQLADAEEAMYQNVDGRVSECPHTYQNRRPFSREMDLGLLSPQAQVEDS

PDGFRA = target: T6, PDGFRA (Homo sapiens, UniProt P16234)
T6 construct: purchased Eurofins DiscoverX KINOMEscan
T6 sequence (P16234 24-1089): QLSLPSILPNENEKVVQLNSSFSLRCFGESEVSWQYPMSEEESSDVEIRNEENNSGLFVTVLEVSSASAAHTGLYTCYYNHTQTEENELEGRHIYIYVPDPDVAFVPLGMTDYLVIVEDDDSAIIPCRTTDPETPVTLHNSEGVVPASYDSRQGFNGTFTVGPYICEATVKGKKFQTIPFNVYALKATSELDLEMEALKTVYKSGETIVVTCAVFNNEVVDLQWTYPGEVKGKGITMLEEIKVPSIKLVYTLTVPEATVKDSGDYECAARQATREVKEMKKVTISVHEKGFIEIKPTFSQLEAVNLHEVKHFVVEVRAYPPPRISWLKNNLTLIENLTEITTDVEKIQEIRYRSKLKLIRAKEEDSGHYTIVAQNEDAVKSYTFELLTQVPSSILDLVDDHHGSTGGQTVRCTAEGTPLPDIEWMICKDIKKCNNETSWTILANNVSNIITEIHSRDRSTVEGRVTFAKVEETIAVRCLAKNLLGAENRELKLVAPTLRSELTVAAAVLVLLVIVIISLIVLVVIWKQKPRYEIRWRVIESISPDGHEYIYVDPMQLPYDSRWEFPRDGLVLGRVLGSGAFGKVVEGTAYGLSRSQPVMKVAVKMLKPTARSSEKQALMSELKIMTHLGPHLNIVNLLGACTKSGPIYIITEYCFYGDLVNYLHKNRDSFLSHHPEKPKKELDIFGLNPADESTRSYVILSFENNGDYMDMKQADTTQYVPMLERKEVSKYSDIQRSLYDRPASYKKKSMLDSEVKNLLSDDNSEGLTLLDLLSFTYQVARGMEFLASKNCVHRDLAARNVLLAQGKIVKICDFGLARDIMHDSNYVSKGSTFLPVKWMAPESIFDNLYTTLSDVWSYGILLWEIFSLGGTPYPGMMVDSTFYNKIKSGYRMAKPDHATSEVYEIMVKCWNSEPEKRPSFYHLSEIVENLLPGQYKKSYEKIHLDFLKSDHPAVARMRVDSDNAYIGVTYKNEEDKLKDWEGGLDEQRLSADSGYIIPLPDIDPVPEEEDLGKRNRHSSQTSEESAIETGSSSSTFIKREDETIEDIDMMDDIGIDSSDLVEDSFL

CHEK1 = target: T7, CHEK1 (Homo sapiens, UniProt O14757)
T7 construct: purchased Eurofins DiscoverX KINOMEscan
T7 sequence (O14757 1-476): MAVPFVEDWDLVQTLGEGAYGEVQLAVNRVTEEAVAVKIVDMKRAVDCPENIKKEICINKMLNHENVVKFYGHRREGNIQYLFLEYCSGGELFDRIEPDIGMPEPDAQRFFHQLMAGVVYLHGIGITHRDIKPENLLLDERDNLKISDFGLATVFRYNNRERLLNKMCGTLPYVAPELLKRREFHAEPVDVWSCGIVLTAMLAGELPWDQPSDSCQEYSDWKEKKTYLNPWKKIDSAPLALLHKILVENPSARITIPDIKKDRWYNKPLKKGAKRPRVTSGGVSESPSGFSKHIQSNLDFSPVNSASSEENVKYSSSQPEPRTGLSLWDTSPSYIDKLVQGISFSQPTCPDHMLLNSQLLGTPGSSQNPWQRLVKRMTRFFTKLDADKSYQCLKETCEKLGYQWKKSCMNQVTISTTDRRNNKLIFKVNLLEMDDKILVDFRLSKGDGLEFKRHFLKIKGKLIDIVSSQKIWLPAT

T1 sequence (Q9H1R3 whole entry): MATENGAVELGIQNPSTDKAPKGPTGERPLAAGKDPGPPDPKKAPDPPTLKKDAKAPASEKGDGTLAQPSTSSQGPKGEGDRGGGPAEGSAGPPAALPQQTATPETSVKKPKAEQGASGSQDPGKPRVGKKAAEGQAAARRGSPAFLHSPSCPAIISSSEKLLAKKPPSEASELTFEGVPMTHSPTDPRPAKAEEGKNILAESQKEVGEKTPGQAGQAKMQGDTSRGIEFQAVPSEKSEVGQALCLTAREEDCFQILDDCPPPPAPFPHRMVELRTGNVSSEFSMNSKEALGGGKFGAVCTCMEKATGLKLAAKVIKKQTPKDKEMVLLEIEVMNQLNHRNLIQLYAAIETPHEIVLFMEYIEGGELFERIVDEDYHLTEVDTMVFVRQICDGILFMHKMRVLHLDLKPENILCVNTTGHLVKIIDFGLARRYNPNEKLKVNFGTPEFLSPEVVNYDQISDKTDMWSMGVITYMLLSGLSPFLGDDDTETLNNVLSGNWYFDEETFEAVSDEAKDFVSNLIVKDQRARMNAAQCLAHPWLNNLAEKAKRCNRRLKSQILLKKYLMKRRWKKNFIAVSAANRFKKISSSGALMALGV
T2 sequence (Q9HAZ1 whole entry): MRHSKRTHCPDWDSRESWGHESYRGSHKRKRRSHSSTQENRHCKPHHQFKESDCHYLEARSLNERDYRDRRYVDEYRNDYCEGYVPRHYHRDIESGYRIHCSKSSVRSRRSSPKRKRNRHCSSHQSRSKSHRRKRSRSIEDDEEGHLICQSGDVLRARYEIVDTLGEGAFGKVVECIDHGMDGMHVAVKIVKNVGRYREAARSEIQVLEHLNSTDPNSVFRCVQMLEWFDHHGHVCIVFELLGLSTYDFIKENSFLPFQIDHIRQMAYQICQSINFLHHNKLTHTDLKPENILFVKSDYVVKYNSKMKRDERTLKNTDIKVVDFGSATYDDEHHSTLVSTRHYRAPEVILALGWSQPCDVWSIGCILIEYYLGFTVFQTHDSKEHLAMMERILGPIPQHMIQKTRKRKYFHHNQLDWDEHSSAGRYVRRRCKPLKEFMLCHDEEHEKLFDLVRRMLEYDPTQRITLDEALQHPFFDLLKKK

| SMILES | remaining binding at 1 µM (MYLK2) [%] | remaining binding at 1 µM (CLK4) [%] | remaining binding at 1 µM (CDK9) [%] | remaining binding at 1 µM (EPHB6) [%] | remaining binding at 1 µM (FLT3(D835Y)) [%] | remaining binding at 1 µM (PDGFRA) [%] | remaining binding at 1 µM (CHEK1) [%] |
| --- | --- | --- | --- | --- | --- | --- | --- |
| Clc1cc(NCC2CC2)c2ncc(-c3ccc4[nH]ncc4c3)n2n1 [compound 2, 6-Chloro-N-(cyclopropylmethyl)-3-(1H-indazol-5-yl)imidazo[1,2-b]pyridazin-8-amine] | 82 | 1.5 | 98 | 68 | 10 | 12 | 88 |
| O=C(CN1CCOCC1)N[C@H]1CC[C@H](Nc2cc(Cl)nn3c(-c4ccc5[nH]ncc5c4)cnc23)CC1 [compound 26] | 52 | 2.1 | 43 | 89 | 17 | 0.3 | 100 |
| CN1CCC(CNc2cc(Cl)nn3c(-c4cc5nc(Nc6ccccc6)[nH]c5cc4F)cnc23)CC1 [compound 31, 6-Chloro-3-(6-fluoro-2-(phenylamino)-1H-benzo[d]imidazol-5-yl)-N-((1-methylpiperidin-4-yl)methyl)imidazo[1,2-b]pyridazin-8-amine] | 89 | 20 | 95 | 83 | 100 | 94 | 100 |
